Measured values as given in patent US20210214713A9, “METHODS FOR EXPERIMENTAL EVOLUTION OF NATURAL AND SYNTHETIC MICROBES” (priority 2017, published 2021).
Like-named read-outs stand apart in the source and are kept apart here.

Key:
[1] = system: haploid and diploid yeast populations (ySK116, ySK743, ySK116x743); format: cell-based, S. cerevisiae; conditions: 30° C., OD 0.25-0.3, over the 20 h following drug addition
Method: Single colonies of fluorescently labelled haploid MATα (ySK116), fluorescently labelled haploid MATα (ySK743), and fluorescently labelled diploid control (ySK116x743) cells were grown overnight in YPD. These overnights were used to seed three eVOLVER vials at OD 0.05 (containing YPAD+50 ug/mL carbenicillin+25 ug/mL chloramphenicol). Cells were maintained at 30° C. in a density window of OD 0.25-0.3 for several generations in order to measure a baseline growth rate. At 16 h post-inoculation, cells from each haploid population were transferred by the vial-to-vial transfer device into the same fresh vial containing YPAD in order to create a new pre-drug to diploid population.
Next, cyclohexamide (CHX) was added to the haploid MATα vial, ketoconazole (KETO) was added to the MATα vial, and both drugs were added to the diploid control. Using the media selection portion of the vial-to-vial transfer device, 1 mL aliquots of media at 20× drug concentration were used to achieve a step-function transition to the final 1× drug concentration in each vial (0.2 ug/mL CHX for MATα, 6 ug/mL KETO for MATα, 0.2 ug/mL CHX+6 ug/mL KETO for the diploid control).

[2] = system: diploid pool samples yBW003, yBW008, yBW009; assay: Growth rate assay to evaluate antifungal resistance of diploid pools in eVOLVER; format: cell-based, S. cerevisiae; conditions: 6 ug/mL KETO only, seeded at OD 0.1, 30° C., 24 h without dilution
Method: As an alternative metric to evaluate performance of the diploids formed during the experiment, a growth rate assay was performed in media containing each drug in isolation or combination. Three diploid pool samples were assayed: yBW003 from to, yBWOO8 from t1, and yBW009 from t2. 100 uL of each frozen stock created from post-selection cultures was thawed, added to 2 mL YPAD and then grown in culture tubes in a shaking incubator for 16 h at 30° C. These cultures were used to seed duplicate eVOLVER vials containing media with one of four drug conditions (no drug, 0.2 ug/mL CHX only, 6 ug/mL KETO only, both 0.2 ug/mL CHX+6 ug/mL KETO) at an initial density of OD 0.1. Each vial received an estimated 3.2×10^7 cells from the non-clonal population that comprised each sample pool. Cultures were maintained in eVOLVER at 30° C. for 24 h without dilution, while tracking density continuously. Growth rate was calculated for each culture over the density range OD 0.2-0.8 (FIG. 43).

C[C@@H]1C[C@@H]([C@H](O)CC2CC(=O)NC(=O)C2)C(=O)[C@@H](C)C1 [CHX, cyclohexamide]
Growth rate relative to its original (pre-drug) value ([1]; 0.2 ug/mL CHX, haploid vial (founder ySK116)): roughly 10%

CC(=O)N1CCN(c2ccc(OCC3COC(Cn4ccnc4)(c4ccc(Cl)cc4Cl)O3)cc2)CC1 (stereo not drawn) [KETO, ketoconazole]
Effect on growth rate of diploid pools [2]: not observed to significantly affect the growth rate
Growth rate relative to its original (pre-drug) value ([1]; 6 ug/mL KETO, haploid MATα vial (founder ySK743)): roughly 10%
